# System: 922993-354-T-J3-PDC complex spheroid viability
# Test: Anticancer human tumor 922993-354-T-J3-PDC patient-derived endometrial carcinoma cell line growth inhibition [POLQ]
# Conditions: for IC50: curve of first compound; for viability, T/C: stronger effect = lower value
# Procedure, shortened: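 Three-cell-type spheroids modelling solid tumor plus stroma served as the readout system; POL inhibitors were tested individually and in combination, concentration ranges set by clinical Cmax where known.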
# 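Also: spheroids exposed to the agents for one week.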
# 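For viability, T/C in this document: 100% = DMSO vehicle control wells.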
compound,measurement,setting,value
CC(=O)O[C@H]1C(=O)[C@@]2(C)[C@H]([C@H](OC(=O)c3ccccc3)[C@]3(O)C[C@H](OC(=O)[C@H](O)[C@@H](NC(=O)c4ccccc4)c4ccccc4)C(C)=C1C3(C)C)[C@]1(OC(C)=O)CO[C@@H]1C[C@@H]2O + Cc1cccc(N(C)C(=O)C2C(O)CCN2c2nc(C)cc(C(F)(F)F)c2C#N)c1,IC50,second compound 0.0316 µM,> 3 µM
same,IC50,second compound 0.1 µM,> 3 µM
same,IC50,second compound 0.316 µM,> 3 µM
same,IC50,second compound 1 µM,> 3 µM
same,IC50,second compound 3.16 µM,> 3 µM
same,IC50,second compound 10 µM,> 3 µM
same,"viability, T/C","second compound 0.0316 µM, first compound 0.00949 µM",100%
same,"viability, T/C","second compound 0.0316 µM, first compound 0.03 µM",102%
same,"viability, T/C","second compound 0.0316 µM, first compound 0.0949 µM",101%
same,"viability, T/C","second compound 0.0316 µM, first compound 0.3 µM",103%
same,"viability, T/C","second compound 0.0316 µM, first compound 0.949 µM",98.5%
same,"viability, T/C","second compound 0.0316 µM, first compound 3 µM",76.6%
same,"viability, T/C","second compound 0.1 µM, first compound 0.00949 µM",105%
same,"viability, T/C","second compound 0.1 µM, first compound 0.03 µM",107%
same,"viability, T/C","second compound 0.1 µM, first compound 0.0949 µM",99.4%
same,"viability, T/C","second compound 0.1 µM, first compound 0.3 µM",99.8%
same,"viability, T/C","second compound 0.1 µM, first compound 0.949 µM",98.9%
same,"viability, T/C","second compound 0.1 µM, first compound 3 µM",66.9%
same,"viability, T/C","second compound 0.316 µM, first compound 0.00949 µM",104%
same,"viability, T/C","second compound 0.316 µM, first compound 0.03 µM",103%
same,"viability, T/C","second compound 0.316 µM, first compound 0.0949 µM",99.9%
same,"viability, T/C","second compound 0.316 µM, first compound 0.3 µM",103%
same,"viability, T/C","second compound 0.316 µM, first compound 0.949 µM",95.5%
same,"viability, T/C","second compound 0.316 µM, first compound 3 µM",73.3%
same,"viability, T/C","second compound 1 µM, first compound 0.00949 µM",104%
same,"viability, T/C","second compound 1 µM, first compound 0.03 µM",98.2%
same,"viability, T/C","second compound 1 µM, first compound 0.0949 µM",99%
same,"viability, T/C","second compound 1 µM, first compound 0.3 µM",101%
same,"viability, T/C","second compound 1 µM, first compound 0.949 µM",91.8%
same,"viability, T/C","second compound 1 µM, first compound 3 µM",64.8%
same,"viability, T/C","second compound 3.16 µM, first compound 0.00949 µM",99.8%
same,"viability, T/C","second compound 3.16 µM, first compound 0.03 µM",105%
same,"viability, T/C","second compound 3.16 µM, first compound 0.0949 µM",100%
same,"viability, T/C","second compound 3.16 µM, first compound 0.3 µM",95%
same,"viability, T/C","second compound 3.16 µM, first compound 0.949 µM",70.5%
same,"viability, T/C","second compound 3.16 µM, first compound 3 µM",63.5%
same,"viability, T/C","second compound 10 µM, first compound 0.00949 µM",97.3%
same,"viability, T/C","second compound 10 µM, first compound 0.03 µM",99.3%
same,"viability, T/C","second compound 10 µM, first compound 0.0949 µM",75.5%
same,"viability, T/C","second compound 10 µM, first compound 0.3 µM",66.7%
same,"viability, T/C","second compound 10 µM, first compound 0.949 µM",63.3%
same,"viability, T/C","second compound 10 µM, first compound 3 µM",48.7%
COc1ccc([C@@H](O)c2cc(-c3ncnc4cc(N5CCOCC5)ccc34)c(F)cc2Cl)nn1 + Nc1ccc(C#CCN(C(=O)Cc2ncc(C(F)(F)F)cc2C(F)(F)F)c2ccc(F)cc2)nn1,IC50,second compound 0.0316 µM,> 10 µM
same,IC50,second compound 0.1 µM,> 10 µM
same,IC50,second compound 0.316 µM,> 10 µM
same,IC50,second compound 1 µM,> 10 µM
same,IC50,second compound 3.16 µM,> 10 µM
same,IC50,second compound 10 µM,> 10 µM
same,"viability, T/C","second compound 0.0316 µM, first compound 0.0316 µM",103%
same,"viability, T/C","second compound 0.0316 µM, first compound 0.1 µM",103%
same,"viability, T/C","second compound 0.0316 µM, first compound 0.316 µM",98%
same,"viability, T/C","second compound 0.0316 µM, first compound 1 µM",100%
same,"viability, T/C","second compound 0.0316 µM, first compound 3.16 µM",91.3%
same,"viability, T/C","second compound 0.0316 µM, first compound 10 µM",73.8%
same,"viability, T/C","second compound 0.1 µM, first compound 0.0316 µM",106%
same,"viability, T/C","second compound 0.1 µM, first compound 0.1 µM",104%
same,"viability, T/C","second compound 0.1 µM, first compound 0.316 µM",100%
same,"viability, T/C","second compound 0.1 µM, first compound 1 µM",97.9%
same,"viability, T/C","second compound 0.1 µM, first compound 3.16 µM",93.7%
same,"viability, T/C","second compound 0.1 µM, first compound 10 µM",75.5%
same,"viability, T/C","second compound 0.316 µM, first compound 0.0316 µM",106%
same,"viability, T/C","second compound 0.316 µM, first compound 0.1 µM",99.2%
same,"viability, T/C","second compound 0.316 µM, first compound 0.316 µM",101%
same,"viability, T/C","second compound 0.316 µM, first compound 1 µM",97.4%
same,"viability, T/C","second compound 0.316 µM, first compound 3.16 µM",87.3%
same,"viability, T/C","second compound 0.316 µM, first compound 10 µM",74.9%
same,"viability, T/C","second compound 1 µM, first compound 0.0316 µM",105%
same,"viability, T/C","second compound 1 µM, first compound 0.1 µM",102%
same,"viability, T/C","second compound 1 µM, first compound 0.316 µM",99.1%
same,"viability, T/C","second compound 1 µM, first compound 1 µM",93.5%
same,"viability, T/C","second compound 1 µM, first compound 3.16 µM",89.4%
same,"viability, T/C","second compound 1 µM, first compound 10 µM",74.9%
same,"viability, T/C","second compound 3.16 µM, first compound 0.0316 µM",97.1%
same,"viability, T/C","second compound 3.16 µM, first compound 0.1 µM",97%
same,"viability, T/C","second compound 3.16 µM, first compound 0.316 µM",93.5%
same,"viability, T/C","second compound 3.16 µM, first compound 1 µM",92.5%
same,"viability, T/C","second compound 3.16 µM, first compound 3.16 µM",86.5%
same,"viability, T/C","second compound 3.16 µM, first compound 10 µM",72%
same,"viability, T/C","second compound 10 µM, first compound 0.0316 µM",97.3%
same,"viability, T/C","second compound 10 µM, first compound 0.1 µM",89%
same,"viability, T/C","second compound 10 µM, first compound 0.316 µM",91.4%
same,"viability, T/C","second compound 10 µM, first compound 1 µM",91.9%
same,"viability, T/C","second compound 10 µM, first compound 3.16 µM",90.3%
same,"viability, T/C","second compound 10 µM, first compound 10 µM",68.8%

# Source: PubChem BioAssay AID1963830 (Molecular Pharmacology Branch, DTP, NCI, 2024)
